Results: article PMC11108815 (Heliyon, 2024)
Marks after values point to notes of the source that are not given here. Blank lines part the entries; values can stand above or below the molecule they belong to.

Columns and labels:
[1] = Pharmacokinetics in rat plasma; assay type: in vivo, Wistar rats
[2] = Stability test of QC samples; assay type: physicochemical, rat
[3] = Store at 4 °C for 24 h, high concentration QC sample in rat plasma
[4] = Store at 4 °C for 24 h, low concentration QC sample in rat plasma
[5] = Store at 4 °C for 24 h, medium concentration QC sample in rat plasma
[6] = Store at room temperature for 12 h, high concentration QC sample in rat plasma
[7] = Store at room temperature for 12 h, low concentration QC sample in rat plasma
[8] = Store at room temperature for 12 h, medium concentration QC sample in rat plasma
[9] = Store at −20 °C for 20 days, high concentration QC sample in rat plasma
[10] = Store at −20 °C for 20 days, low concentration QC sample in rat plasma
[11] = Store at −20 °C for 20 days, medium concentration QC sample in rat plasma
[12] = Three freeze-thaw cycles, high concentration QC sample in rat plasma
[13] = Three freeze-thaw cycles, low concentration QC sample in rat plasma
[14] = Three freeze-thaw cycles, medium concentration QC sample in rat plasma
[15] = FS-C: normal (blank) rats, oral FS 100 mg kg^−1, n = 6
[16] = FS-M: microcirculation dysfunction model rats, oral FS 100 mg kg^−1, n = 6
[17] = FT-C: normal (blank) rats, oral FT 100 mg kg^−1, n = 6
[18] = FT-M: microcirculation dysfunction model rats, oral FT 100 mg kg^−1, n = 6

AUC(0-t) ([1]; Wistar, rat, plasma, po, 100 mg/kg, AUC0-t, FT-C: normal (blank) rats, oral FT 100 mg kg^−1, n = 6): 77.9 ± 11.9 µg·h/L
AUC(0-inf) ([1]; Wistar, rat, plasma, po, 100 mg/kg, AUC0-∞, FT-C: normal (blank) rats, oral FT 100 mg kg^−1, n = 6): 116 ± 83.4 ng·h/mL
CL/F ([1]; Wistar, rat, plasma, po, 100 mg/kg, CLz/F, FT-C: normal (blank) rats, oral FT 100 mg kg^−1, n = 6): 342 mL/min/kg
Cmax ([1]; Wistar, rat, plasma, po, 100 mg/kg, Cmax, FT-C: normal (blank) rats, oral FT 100 mg kg^−1, n = 6): 5.77 ± 0.62 µg/L
MRT last ([1]; Wistar, rat, plasma, po, 100 mg/kg, MRT0-t, FT-C: normal (blank) rats, oral FT 100 mg kg^−1, n = 6): 7.51 ± 0.81 h
MRT inf ([1]; Wistar, rat, plasma, po, 100 mg/kg, MRT0-∞, FT-C: normal (blank) rats, oral FT 100 mg kg^−1, n = 6): 15.4 ± 18.6 h
half-life ([1]; Wistar, rat, plasma, po, 100 mg/kg, T1/2, FT-C: normal (blank) rats, oral FT 100 mg kg^−1, n = 6): 443 ± 860 min
Tmax ([1]; Wistar, rat, plasma, po, 100 mg/kg, Tmax, FT-C: normal (blank) rats, oral FT 100 mg kg^−1, n = 6): 63.6 ± 88.2 min
Tmax ([1]; Wistar, rat, plasma, po, 100 mg/kg, Tmax, control group, after oral administration of FS or FT): > 28.2 min
Stability, Accuracy (RE, %) [2, 3]: 0.42%
Stability, Accuracy (RE, %) [2, 4]: 3.07%
Stability, Accuracy (RE, %) [2, 5]: 7.93%
Stability, Accuracy (RE, %) [2, 6]: 11.51%
Stability, Accuracy (RE, %) [2, 7]: −6.74%
Stability, Accuracy (RE, %) [2, 8]: 0.45%
Stability, Accuracy (RE, %) [2, 9]: −1.16%
Stability, Accuracy (RE, %) [2, 10]: 7.31%
Stability, Accuracy (RE, %) [2, 11]: −5.30%
Stability, Accuracy (RE, %) [2, 12]: 4.10%
Stability, Accuracy (RE, %) [2, 13]: −8.01%
Stability, Accuracy (RE, %) [2, 14]: −5.39%
Structure (SMILES): C[C@@H]1O[C@@H](OC[C@H]2O[C@@H](Oc3c(-c4ccc(O)c(O)c4)oc4cc(O)cc(O)c4c3=O)[C@H](O)[C@@H](O)[C@@H]2O)[C@H](O)[C@H](O)[C@H]1O [Rutin]

AUC0-∞ [1, 15]: 641.77 ± 218.27 µg·h/L
AUC(0-t) [1, 15]: 542.82 ± 141.09 µg·h/L
CLz/F [1, 15]: 0.02 ± 0.01 L/h/kg
Cmax [1, 15]: 88.45 ± 17.93 µg/L
MRT0-t [1, 15]: 6.53 ± 2.11 h
MRT0-∞ [1, 15]: 11.93 ± 15.11 h
T1/2 [1, 15]: 5.74 ± 11.19 h
Tmax [1, 15]: 40.2 ± 22.2 min
AUC0-∞ [1, 16]: 947.33 ± 140.96 ^c μg·h·L^−1
AUC(0-t) [1, 16]: 880.02 ± 141.73 ^d μg·h·L^−1
CLz/F [1, 16]: 0.01 ± 0.00 ^c L·h^−1·kg^−1
Cmax [1, 16]: 105.53 ± 11.68 µg/L
MRT0-t [1, 16]: 7.53 ± 0.85 h
MRT0-∞ [1, 16]: 9.53 ± 3.95 h
T1/2 [1, 16]: 4.47 ± 3.92 h
Tmax [1, 16]: 44.4 ± 96 min
AUC0-∞ [1, 17]: 588.72 ± 114.83 µg·h/L
AUC(0-t) [1, 17]: 584.67 ± 122.39 µg·h/L
CLz/F [1, 17]: 0.02 ± 0.00 L/h/kg
Cmax [1, 17]: 99.66 ± 15.57 µg/L
MRT0-t [1, 17]: 7.54 ± 0.95 h
MRT0-∞ [1, 17]: 7.81 ± 0.63 h
T1/2 [1, 17]: 2.18 ± 2.22 h
Tmax [1, 17]: 28.2 ± 4.2 min
AUC0-∞ [1, 18]: 767.88 ± 279.35 µg·h/L
AUC(0-t) [1, 18]: 658.64 ± 172.02 µg·h/L
CLz/F [1, 18]: 0.02 ± 0.01 L/h/kg
Cmax [1, 18]: 165.48 ± 7.83^f μg·L^−1
MRT0-t [1, 18]: 5.33 ± 0.98 ^a^, ^e h
MRT0-∞ [1, 18]: 10.76 ± 12.84 h
T1/2 [1, 18]: 6.40 ± 11.48 h
Tmax [1, 18]: 1.00 ± 0.00 ^f h
AUC0-t in model group compared with control group ([1]; after modeling, p < 0.01, 0.05): significantly higher
AUC0-∞ in model group compared with control group ([1]; after modeling, p < 0.01, 0.05): significantly higher
MRT0-t in the model group treated with FT ([1]; compared with the control group treated with FT and the model group treated with FS): decreased
shape of the drug-time curve ([1]; control group with oral FS): bimodal phenomenon
CLz/F after modeling compared with control group ([1]; oral administration of FS): decrease
Cmax after modeling compared with control group ([1]; oral administration of FT): significant increase
Stability, Accuracy (RE, %) [2, 3]: 6.29%
Stability, Accuracy (RE, %) [2, 4]: −5.50%
Stability, Accuracy (RE, %) [2, 5]: 5.99%
Stability, Accuracy (RE, %) [2, 6]: 9.76%
Stability, Accuracy (RE, %) [2, 7]: −2.61%
Stability, Accuracy (RE, %) [2, 8]: 1.50%
Stability, Accuracy (RE, %) [2, 9]: −8.83%
Stability, Accuracy (RE, %) [2, 10]: 6.50%
Stability, Accuracy (RE, %) [2, 11]: 0.73%
Stability, Accuracy (RE, %) [2, 12]: −3.63%
Stability, Accuracy (RE, %) [2, 13]: 2.54%
Stability, Accuracy (RE, %) [2, 14]: −10.44%
Structure (SMILES): O=C(O)[C@H](O)Cc1ccc(O)c(O)c1 [Danshensu]

AUC0-∞ [1, 15]: 33.09 ± 32.59 µg·h/L
AUC(0-t) [1, 15]: 30.14 ± 25.77 µg·h/L
CLz/F [1, 15]: 63.67 ± 33.45 L/h/kg
Cmax [1, 15]: 11.01 ± 2.17 µg/L
MRT0-t [1, 15]: 3.65 ± 4.31 h
MRT0-∞ [1, 15]: 4.61 ± 6.46 h
T1/2 [1, 15]: 7.30 ± 4.55 h
Tmax [1, 15]: 40.2 ± 15.6 min
AUC0-∞ [1, 16]: 55.32 ± 49.60 µg·h/L
AUC(0-t) [1, 16]: 39.25 ± 24.96 µg·h/L
CLz/F [1, 16]: 41.35 ± 24.97 L/h/kg
Cmax [1, 16]: 11.09 ± 3.14 µg/L
MRT0-t [1, 16]: 4.52 ± 4.05 h
MRT0-∞ [1, 16]: 10.25 ± 12.88 h
T1/2 [1, 16]: 8.45 ± 8.99 h
Tmax [1, 16]: 45 ± 16.2 min
AUC0-∞ [1, 17]: 30.07 ± 23.22 µg·h/L
AUC(0-t) [1, 17]: 29.34 ± 21.99 µg·h/L
CLz/F [1, 17]: 68.05 ± 46.28 L/h/kg
Cmax [1, 17]: 7.05 ± 1.64 ^b μg·L^−1
MRT0-t [1, 17]: 4.27 ± 3.46 h
MRT0-∞ [1, 17]: 4.55 ± 3.95 h
T1/2 [1, 17]: 3.31 ± 1.82 h
Tmax [1, 17]: 0.28 ± 0.14 ^b h
AUC0-∞ [1, 18]: 40.99 ± 46.75 µg·h/L
AUC(0-t) [1, 18]: 29.64 ± 22.98 µg·h/L
CLz/F [1, 18]: 63.65 ± 43.57 L/h/kg
Cmax [1, 18]: 8.95 ± 6.01 µg/L
MRT0-t [1, 18]: 3.90 ± 3.23 h
MRT0-∞ [1, 18]: 8.76 ± 14.72 h
T1/2 [1, 18]: 10.67 ± 9.80 h
Tmax [1, 18]: 1.22 ± 0.66 ^f h
Cmax in FT compared with FS ([1]; normal group, p < 0.01, 0.05): significantly lower
Stability, Accuracy (RE, %) [2, 3]: 7.30%
Stability, Accuracy (RE, %) [2, 4]: −9.02%
Stability, Accuracy (RE, %) [2, 5]: −3.01%
Stability, Accuracy (RE, %) [2, 6]: −13.32%
Stability, Accuracy (RE, %) [2, 7]: 4.15%
Stability, Accuracy (RE, %) [2, 8]: 1.94%
Stability, Accuracy (RE, %) [2, 9]: −1.60%
Stability, Accuracy (RE, %) [2, 10]: −1.94%
Stability, Accuracy (RE, %) [2, 11]: 4.74%
Stability, Accuracy (RE, %) [2, 12]: −3.54%
Stability, Accuracy (RE, %) [2, 13]: −5.18%
Stability, Accuracy (RE, %) [2, 14]: 7.92%
Structure (SMILES): O=C(/C=C/c1ccc(O)c2oc(-c3ccc(O)c(O)c3)cc12)O[C@H](Cc1ccc(O)c(O)c1)C(=O)O [Salvianolic acid C]
